Results reported in paper PMC2879651 (Bioanalysis, 2009).
Like-named read-outs stand apart in the source and are kept apart here.

Experiments:
[1] = fatal intoxication after ingestion of Ayahuasca preparation; cited from earlier work
[2] = format: in vivo, male FVB/N mice; conditions: for Cmax / MRT: male, FVB/N, mouse, ip, 2 mg/kg; for AUC0→t (AUC0→60 min): 0-60 min
[3] = rats, 1 hour after bufotenine 30 mg/kg s.c.; cited from earlier work

Compound | concentration in heart blood of decedent [1] | Cmax ([2]; serum) | MRT ([2]; serum) | serum concentration at 60 min relative to Cmax ([2]; mice, 60 min after 5-MeO-DMT 2 mg/kg i.p.) | AUC0→t (AUC0→90 min) ([2]; mice, serum, after 5-MeO-DMT 2 mg/kg i.p., 0-90 min) | serum concentration at 90 min ([2]; mice, 90 min after 5-MeO-DMT 2 mg/kg i.p., metabolite) | systemic exposure (AUC) to bufotenine relative to that to 5-MeO-DMT ([2]; mice, after 5-MeO-DMT 2 mg/kg i.p.) | Tmax ([2]; mice, serum, after 5-MeO-DMT 2 mg/kg i.p., bufotenine as metabolite) | AUC0→t (AUC0→60 min) ([2]; mice, serum, after 5-MeO-DMT 2 mg/kg i.p., metabolite) | AUC0→t (AUC0→60 min) ([2]; mice, serum, after 5-MeO-DMT 2 mg/kg i.p., metabolite, listed as bufotenine) | brain over blood ratio of drug concentration [3]
COc1ccc2[nH]cc(CCN(C)C)c2c1 [5-MeO-DMT, 5-Methoxy-N,N-dimethyltryptamine, reference compound] | 1880 ng/mL | 298 ± 29 ng/mL | 17.6 min | 4.4% | 6,000 ± 1,240 µg·min/L | – | – | – | – | – | –
CN(C)CCc1c[nH]c2ccc(O)cc12 [Bufotenine, bufotenine] | – | 10.6 ± 2.3 ng/mL | 24.3 min | – | – | below the LLOQ | about 1/14 | 13.3 ± 5.8 min | 388 ± 82 µg·min/L | 388 µg·min/L | 1/15
